Test results taken from patent US20250340557A1, “PYRIMIDINE DERIVATIVE” (ASKA PHARMACEUTICAL CO., LTD., priority 2022, published 2025).

Each compound was assayed against T1, human mPGES-1 (Homo sapiens, UniProt O14684) (assay: Test for mPGES-1 inhibitory activity (microsomal enzyme, PGE2 EIA)). Conditions: microsomes from COS-1 cells transfected with human mPGES-1 cDNA; substrate PGH2 1 μM; 4° C., 4 minutes; PGE2 measured by EIA; read-out: h mPGES1 IC50.
T1 construct: made in house; host or cells: COS-1 cells (transient transfection; microsomal fraction used as enzyme)
T1 sequence (O14684 1-152): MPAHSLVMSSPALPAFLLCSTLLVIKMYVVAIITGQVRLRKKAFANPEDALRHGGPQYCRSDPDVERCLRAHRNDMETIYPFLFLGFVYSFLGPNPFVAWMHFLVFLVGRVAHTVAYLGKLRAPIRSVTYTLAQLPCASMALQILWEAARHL
Format: biochemical
Description: Test Example 1: Test for mPGES-1 Inhibitory Activity
Microsomes were prepared from COS-1 cells transiently transfected with a plasmid containing human mPGES-1 cDNA, and used as mPGES-1 enzyme. The mPGES-1 enzyme was diluted with a sodium phosphate buffer (pH 7.2) containing reduced glutathione (2.5 mM) and EDTA (1 mM), DMSO or a DMSO solution of a test compound (final concentration of DMSO was 2%) was added to the enzyme, and the mixture was preincubated at 4° C. for 15 minutes. Then, PGH2 (Prostaglandin H2) as the substrate was added at a final concentration of 1 μM to start the enzymatic reaction, and after incubation at 4° C. for 4 minutes, a solution of ferric chloride (25 mM) and citric acid (50 mM) was added to terminate the enzymatic reaction. Generated PGE2 (Prostaglandin E2) was measured by using Prostaglandin E2 Express EIA Kit (Cayman Chemical). IC50 values were determined by using a standard method.

| SMILES | IC50 [nM] |
| --- | --- |
| O=C(NCc1ccc(C(F)(F)F)c(-c2nc(C(F)(F)F)cc(=O)[nH]2)c1F)C1CN(c2cccc(C(F)(F)F)n2)C1 [Example 26, N-{2-fluoro-3-[6-oxo-4-(trifluoromethyl)-1,6-dihydropyrimidin-2-yl]-4-(trifluoromethyl)benzyl}-1-[6-(trifluoromethyl)pyridin-2-yl]azetidine-3-carboxamide] | 4.1 |
| O=C(NCc1ccc(C(F)(F)F)c(-c2nc(C(F)(F)F)cc(=O)[nH]2)c1F)C1CCN(c2ccc(Cl)cn2)CC1 [Example 27, 1-(5-chloropyridin-2-yl)-N-{2-fluoro-3-[6-oxo-4-(trifluoromethyl)-1,6-dihydropyrimidin-2-yl]-4-(trifluoromethyl)benzyl}piperidine-4-carboxamide] | < 1 |
| O=C(NCc1ccc(C(F)(F)F)c(-c2nccc(=O)[nH]2)c1F)C1CCN(c2ccc(C(F)(F)F)cn2)CC1 [Example 28, N-[2-fluoro-3-(6-oxo-1,6-dihydropyrimidin-2-yl)-4-(trifluoromethyl)benzyl]-1-[5-(trifluoromethyl)pyridin-2-yl]piperidine-4-carboxamide] | < 1 |
| O=C(NCc1ccc(C(F)(F)F)c(-c2nc(C(F)F)cc(=O)[nH]2)c1F)C1CCN(c2ccc(C(F)(F)F)cn2)CC1 [Example 29, N-{3-[4-(difluoromethyl)-6-oxo-1,6-dihydropyrimidin-2-yl]-2-fluoro-4-(trifluoromethyl)benzyl}-1-[5-(trifluoromethyl)pyridin-2-yl]piperidine-4-carboxamide] | 11 |
| O=C(NCc1ccc(C(F)(F)F)c(-c2nc(C(F)(F)F)cc(=O)[nH]2)c1F)C1CCN(c2ncc(Cl)cc2Cl)CC1 [Example 30, 1-(3,5-dichloropyridin-2-yl)-N-{2-fluoro-3-[6-oxo-4-(trifluoromethyl)-1,6-dihydropyrimidin-2-yl]-4-(trifluoromethyl)benzyl}piperidine-4-carboxamide] | < 1 |
| Cc1cccc2ccc(N3CCC(C(=O)NCc4ccc(Cl)c(-c5nc(C(F)(F)F)cc(=O)[nH]5)c4F)CC3)nc12 [Example 31, N-{4-chloro-2-fluoro-3-[6-oxo-4-(trifluoromethyl)-1,6-dihydropyrimidin-2-yl]benzyl}-1-(8-methylquinolin-2-yl)piperidine-4-carboxamide] | < 1 |
| O=C(NCc1ccc(Cl)c(-c2nc(C(F)(F)F)cc(=O)[nH]2)c1F)C1CCN(c2ccc(C(F)(F)F)cn2)CC1 [Example 32, N-{4-chloro-2-fluoro-3-[6-oxo-4-(trifluoromethyl)-1,6-dihydropyrimidin-2-yl]benzyl}-1-[5-(trifluoromethyl)pyridin-2-yl]piperidine-4-carboxamide] | < 1 |
| Cc1nc(-c2c(C(F)(F)F)ccc(CNC(=O)C3CCN(c4ccc(C(F)(F)F)cn4)CC3)c2F)[nH]c(=O)c1F [Example 33, N-[2-fluoro-3-(5-fluoro-4-methyl-6-oxo-1,6-dihydropyrimidin-2-yl)-4-(trifluoromethyl)benzyl]-1-[5-(trifluoromethyl)pyridin-2-yl]piperidine-4-carboxamide] | 14 |
| Cc1cc(=O)[nH]c(-c2c(C(F)(F)F)ccc(CNC(=O)C3CCN(c4ccc(C(F)(F)F)cn4)CC3)c2F)n1 [Example 34, N-[2-fluoro-3-(4-methyl-6-oxo-1,6-dihydropyrimidin-2-yl)-4-(trifluoromethyl)benzyl]-1-[5-(trifluoromethyl)pyridin-2-yl]piperidine-4-carboxamide] | < 1 |
| Cc1nc(-c2c(C(F)(F)F)ccc(CNC(=O)C3CCN(c4ccc(C(F)(F)F)cn4)CC3)c2F)[nH]c(=O)c1C [Example 35, N-[3-(4,5-dimethyl-6-oxo-1,6-dihydropyrimidin-2-yl)-2-fluoro-4-(trifluoromethyl)benzyl]-1-[5-(trifluoromethyl)pyridin-2-yl]piperidine-4-carboxamide] | 11 |
| O=C(NCc1ccc(C(F)(F)F)c(-c2nc(C(F)(F)F)cc(=O)[nH]2)c1F)C1CCN(c2cnc(C(F)(F)F)cn2)CC1 [Example 36, N-{2-fluoro-3-[6-oxo-4-(trifluoromethyl)-1,6-dihydropyrimidin-2-yl]-4-(trifluoromethyl)benzyl}-1-[5-(trifluoromethyl)pyrazin-2-yl]piperidine-4-carboxamide] | 14 |
| O=C(NCc1ccc(C(F)(F)F)c(-c2nc(C(F)(F)F)cc(=O)[nH]2)c1F)C1CCN(c2ncc(Cl)cc2F)CC1 [Example 37, 1-(5-chloro-3-fluoropyridin-2-yl)-N-{2-fluoro-3-[6-oxo-4-(trifluoromethyl)-1,6-dihydropyrimidin-2-yl]-4-(trifluoromethyl)benzyl}piperidine-4-carboxamide] | 18 |
| O=C(NCc1ccc(C(F)(F)F)c(-c2nc(C(F)(F)F)cc(=O)[nH]2)c1F)C1(F)CCN(c2ccc(C(F)(F)F)cn2)CC1 [Example 38, 4-fluoro-N-{2-fluoro-3-[6-oxo-4-(trifluoromethyl)-1,6-dihydropyrimidin-2-yl]-4-(trifluoromethyl)benzyl}-1-[5-(trifluoromethyl)pyridin-2-yl]piperidine-4-carboxamide] | 7.8 |
| O=C(NCc1ccc(C(F)(F)F)c(-c2nc(C(F)(F)F)cc(=O)[nH]2)c1F)C1CCN(c2ncc(C(F)(F)F)cc2F)CC1 [Example 39, N-{2-fluoro-3-[6-oxo-4-(trifluoromethyl)-1,6-dihydropyrimidin-2-yl]-4-(trifluoromethyl)benzyl}-1-[3-fluoro-5-(trifluoromethyl)pyridin-2-yl]piperidine-4-carboxamide] | < 1 |
| O=C(NCc1ccc(C(F)(F)F)c(-c2nc(C(F)(F)F)cc(=O)[nH]2)c1F)C1CCN(c2ccc(OC(F)(F)F)cn2)CC1 [Example 40, N-{2-fluoro-3-[6-oxo-4-(trifluoromethyl)-1,6-dihydropyrimidin-2-yl]-4-(trifluoromethyl)benzyl}-1-[5-(trifluoromethoxy)pyridin-2-yl]piperidine-4-carboxamide] | 15 |
| O=C(NCc1ccc(C(F)(F)F)c(-c2nc3c(c(=O)[nH]2)CCC3)c1F)C1CCN(c2ccc(C(F)(F)F)cn2)CC1 [Example 41, N-[2-fluoro-3-(4-oxo-4,5,6,7-tetrahydro-3H-cyclopenta[d]pyrimidin-2-yl)-4-(trifluoromethyl)benzyl]-1-[5-(trifluoromethyl)pyridin-2-yl]piperidine-4-carboxamide] | 26 |
| CCc1nc(-c2c(C(F)(F)F)ccc(CNC(=O)C3CCN(c4ccc(C(F)(F)F)cn4)CC3)c2F)[nH]c(=O)c1F [Example 42, N-[3-(4-ethyl-5-fluoro-6-oxo-1,6-dihydropyrimidin-2-yl)-2-fluoro-4-(trifluoromethyl)benzyl]-1-[5-(trifluoromethyl)pyridin-2-yl]piperidine-4-carboxamide] | < 1 |
| Cc1nc(-c2c(C(F)(F)F)ccc(CNC(=O)C3CCN(c4ncc(Cl)cc4Cl)CC3)c2F)[nH]c(=O)c1F [Example 44, 1-(3,5-dichloropyridin-2-yl)-N-[2-fluoro-3-(5-fluoro-4-methyl-6-oxo-1,6-dihydropyrimidin-2-yl)-4-(trifluoromethyl)benzyl]piperidine-4-carboxamide] | < 1 |
| O=C(NCc1ccc(C(F)(F)F)c(-c2nc(C(F)F)cc(=O)[nH]2)c1F)C1CCN(c2ncc(Cl)cc2Cl)CC1 [Example 45, 1-(3,5-dichloropyridin-2-yl)-N-{3-[4-(difluoromethyl)-6-oxo-1,6-dihydropyrimidin-2-yl]-2-fluoro-4-(trifluoromethyl)benzyl}piperidine-4-carboxamide] | 15 |
| Cc1cc(=O)[nH]c(-c2c(C(F)(F)F)ccc(CNC(=O)C3CCN(c4ncc(Cl)cc4Cl)CC3)c2F)n1 [Example 46, 1-(3,5-dichloropyridin-2-yl)-N-[2-fluoro-3-(4-methyl-6-oxo-1,6-dihydropyrimidin-2-yl)-4-(trifluoromethyl)benzyl]piperidine-4-carboxamide] | 49 |
| Cc1nc(-c2c(C(F)(F)F)ccc(CNC(=O)C3CCN(c4ncc(C(F)(F)F)cc4F)CC3)c2F)[nH]c(=O)c1F [Example 48, N-[2-fluoro-3-(5-fluoro-4-methyl-6-oxo-1,6-dihydropyrimidin-2-yl)-4-(trifluoromethyl)benzyl]-1-[3-fluoro-5-(trifluoromethyl)pyridin-2-yl]piperidine-4-carboxamide] | < 1 |
| Cc1cc(=O)[nH]c(-c2c(C(F)(F)F)ccc(CNC(=O)C3CCN(c4ncc(C(F)(F)F)cc4F)CC3)c2F)n1 [Example 49, N-[2-fluoro-3-(4-methyl-6-oxo-1,6-dihydropyrimidin-2-yl)-4-(trifluoromethyl)benzyl]-1-[3-fluoro-5-(trifluoromethyl)pyridin-2-yl]piperidine-4-carboxamide] | 21 |
| O=C(NCc1ccc(C(F)(F)F)c(-c2nc(C(F)(F)F)cc(=O)[nH]2)c1)C1CCN(c2ccc(C(F)(F)F)cn2)CC1 [Example 50, N-{3-[6-oxo-4-(trifluoromethyl)-1,6-dihydropyrimidin-2-yl]-4-(trifluoromethyl)benzyl}-1-[5-(trifluoromethyl)pyridin-2-yl]piperidine-4-carboxamide] | < 1 |
